Entries after “also recorded” stand apart in the source; their conditions may differ.
What follows are compounds tested against recombinant human GSK3 enzyme (GSK-3β) (Homo sapiens, UniProt P49841) (assay: Measurement of the inhibition of GSK-3β (Kinase-Glo luminometric assay)). Conditions: 25 μM substrate, 1 μM ATP, 30 min at 30 °C.
Assay type: biochemical
Experimental: The enzyme inhibition assays were performed using the luminometric methodology of Kinase-Glo®. […] The luminescent kinase kit (catalogue no. V6711) was obtained from Promega. The ATP and the other reagents were purchased from Sigma-Aldrich (St. Louis, Mo.).
The assays were performed in buffer using 96-well plates. 10 µl of the compound to be assayed (dissolved in DMSO at a concentration of 1 mM, and, in turn, dissolved in buffer to the concentration necessary for the experiment) and 10 µl (20 ng) of the enzyme are added to each well, followed by 20 µl of buffer containing 25 µM of the substrate and 1 µM of ATP. […] Following a half-hour incubation at 30° C., the enzymatic reaction is stopped with 40 µl of the Kinase-Glo® reagent. The luminescence is measured after ten minutes, using a POLARstar Optima multimode reader. The activity is proportional to the difference between the total ATP and the ATP consumed. The inhibitory activities were calculated as a function of the maximum activity, measured in the absence of inhibitor.

Structure (SMILES) | IC50 [µM]
CCCCCCCCCCCC(=O)NNC(=O)c1c(O)c2ccccc2n(C)c1=O [Compound 4, N′-Dodecanoyl-4-hydroxy-1-methyl-2-oxo-1.2-dihydroquinoline-3-carbohydrazide] | 7.35 ± 0.23
CCCCCCCC(=O)NNC(=O)c1c(O)c2cc(Cl)ccc2n(CC)c1=O [Compound 55, 6-Chloro-1-ethyl-4-hydroxy-N′-octanoyl-2-oxo-1,2-dihydroquinoline-3-carbohydrazide] | 9.42 ± 0.23
CCCCCCCC(=O)NNC(=O)c1c(O)c2ccccc2n(C)c1=O [Compound 3, 4-Hydroxy-1-methyl-N′-octanoyl-2-oxo-1,2-dihydroquinoline-3-carbohydrazide] | 8.67 ± 0.4
CCCCCCCC(=O)NNC(=O)c1c(O)c2cc(Cl)ccc2n(C)c1=O [Compound 53, 6-Chloro-4-hydroxy-1-methyl-N′-octanoyl-2-oxo-1,2-dihydroquinoline-3-carbohydrazide] | 8.48 ± 0.3
CCCCCCCC(=O)NNC(=O)c1c(O)c2ccc(Cl)cc2n(CC)c1=O [Compound 59, 7-Chloro-1-ethyl-4-hydroxy-N′-octanoyl-2-oxo-1,2-dihydroquinoline-3-carbohydrazide] | 4.83 ± 0.23
CCCCCCCCCCCC(=O)NNC(=O)c1c(O)c2cc(Br)ccc2n(CC)c1=O [Compound 52, 6-Bromo-N′-dodecanoyl-1-ethyl-4-hydroxy-2-oxo-1,2-dihydroquinoline-3-carbohydrazide] | 2.01 ± 0.18
CCCCCCCCCCCC(=O)NNC(=O)c1c(O)c2ccccc2n(Cc2ccccc2)c1=O [Compound 46, 1-Benzyl-N′-dodecanoyl-4-hydroxy-2-oxo-1,2-dihydroquinoline-3-carbohydrazide] | 5.51 ± 0.27
CCCCCCCCCCCC(=O)NNC(=O)c1c(O)c2cc(Cl)ccc2n(CC)c1=O [Compound 56, 6-Chloro-N′-dodecanoyl-1-ethyl-4-hydroxy-2-oxo-1,2-dihydroquinoline-3-carbohydrazide] | 3.18 ± 0.28
CCCCCCCCCCCC(=O)N(Cc1ccccc1)NC(=O)c1c(O)c2ccccc2n(Cc2ccccc2)c1=O [Compound 63, N′-1-dibenzyl-N′-dodecanoyl-4-hydroxy-2-oxo-1,2-dihydroquinoline-3-carbohydrazide] | 6.84 ± 0.51
CCCCCCCC(=O)NNC(=O)c1c(O)c2ccc(Cl)cc2n(Cc2ccccc2)c1=O [Compound 61, 1-Benzyl-7-chloro-4-hydroxy-N′-octanoyl-2-oxo-1,2-di hydroquinoline-3-carbohydrazide] | 5.96 ± 0.17
CCCCCCCCCCCC(=O)NNC(=O)c1c(O)c2cc(Cl)ccc2n(C)c1=O [Compound 54, 6-Chloro-N′-dodecanoyl-4-hydroxy-1-methyl-2-oxo-1,2-dihydroquinoline-3-carbohydrazide] | 5.95 ± 0.49
CCCCCCCCCCCC(=O)NNC(=O)c1c(O)c2cc(Br)ccc2n(C)c1=O [Compound 50, 6-Bromo-N′-dodecanoyl-4-hydroxy-1-methyl-2-oxo-1,2-dihydroquinoline-3-carbohydrazide] | 4.28 ± 0.5
CCCCCCCCCCCC(=O)NNC(=O)c1c(O)c2ccc(Cl)cc2n(Cc2ccccc2)c1=O [Compound 62, 1-Benzyl-7-chloro-N′-dodecanoyl-4-hydroxy-2-oxo-1,2-dihydroquinoline-3-carbohydrazide] | 5.99 ± 0.22
CCCCCCCCCCCC(=O)NNC(=O)c1c(O)c2ccccc2n(CC2CC2)c1=O [Compound 45, 1-(cyclopropylmethyl)-N′-dodecanoyl-4-hydroxy-2-oxo-1,2-dihydroquinoline-3-carbohydrazide] | 5.25 ± 0.58
CCCCCCCC(=O)NNC(=O)c1c(O)c2cc(Br)ccc2n(CC)c1=O [Compound 51, 6-Bromo-1-ethyl-4-hydroxy-N′-octanoyl-2-oxo-1,2-dihydroquinoline-3-carbohydrazide] | 7.34 ± 0.2
CCCCCCCC(=O)NNC(=O)c1c(O)c2cc(Br)ccc2n(C)c1=O [Compound 49, 6-Bromo-4-hydroxy-1-methyl-N′-octanoyl-2-oxo-1,2-dihydroquinoline-3-carbohydrazide] | 6.28 ± 0.33
CCCCCCCCCCCC(=O)NNC(=O)c1c(O)c2ccc(Cl)cc2n(C)c1=O [Compound 58, 7-Chloro-N′-dodecanoyl-4-hydroxy-1-methyl-2-oxo-1,2-dihydroquinoline-3-carbohydrazide] | 4.03 ± 0.19
CCCCCCCC(=O)NNC(=O)c1c(O)c2ccc(Cl)cc2n(C)c1=O [Compound 57, 7-Chloro-4-hydroxy-1-methyl-N′-octanoyl-2-oxo-1,2-dihydroquinoline-3-carbohydrazide] | 6.66 ± 0.29
CCCCCCCCCCCC(=O)NNC(=O)c1c(O)c2ccccc2n(CC)c1=O [Compound 6, N′-Dodecanoyl-1-ethyl-4-hydroxy-2-oxo-1,2-dihydroquinoline-3-carbohydrazide] | 2.85 ± 0.36
CCCCCCCCCCCC(=O)NNC(=O)c1c(O)c2ccc(Cl)cc2n(CC)c1=O [Compound 60, 7-Chloro-N′-dodecanoyl-1-ethyl-4-hydroxy-2-oxo-1,2-dihydroquinoline-3-carbohydrazide] | 2.48 ± 0.26

The compounds below were run on RAW 264.7 cells (assay: Anti-inflammatory activity: nitrite production (Griess method) in LPS-stimulated RAW 264.7 cells). Conditions: 1.25, 2.5, 5 and 10 μM; 1 h pre-treatment, 0.4 μg/ml LPS 24 h.
Assay type: cell-based
Experimental: A monolayer culture of RAW 264.7 cells growing in 96-well plates is used. The cells are treated for 1 h with the compounds evaluated. Subsequently, the inflammatory activity is stimulated with 0.4 µg/ml of LPS for 24 h. Once this time has elapsed, the production of nitrites is evaluated by means of the Griess method. Briefly, 50 µl of supernatant are transferred to 96-well plates and 50 µl of Griess reagent are added. The mixture is incubated for 15 minutes at room temperature and the absorbance at 520 nm is measured in a microplate reader.

Structure (SMILES) | decrease in nitrite release
CCCCCCCCCCCC(=O)NNC(=O)c1c(O)c2ccccc2n(CC)c1=O [Compound 6, N′-Dodecanoyl-1-ethyl-4-hydroxy-2-oxo-1,2-dihydroquinoline-3-carbohydrazide] | dose-dependent effect on the decrease in nitrite release; also recorded: decrease in inflammatory activity

The compounds below were run against GSK-3β (Homo sapiens, UniProt P49841) (assay: Kinetic study varying ATP concentration (ADP-Glo Kinase Assay, double-reciprocal plot)). Conditions: ATP 1 to 50 μM, GS-2 12.5 μM, inhibitor 5 to 10 μM.
Assay type: biochemical
Experimental: The ATP concentrations were varied from 1 to 50 µM, whereas the concentration of the GS-2 peptide was kept constant at 12.5 µM. The concentrations of inhibitor (compound 6) used are shown in the plot.
The kinetic studies conducted by varying the ATP concentration from 1 to 50 µM, and the concentration of inhibitor 6 from 5 to 10 µM, were performed using the ADP-Glo™ Kinase Assay.

Structure (SMILES) | mode of inhibition versus ATP
CCCCCCCCCCCC(=O)NNC(=O)c1c(O)c2ccccc2n(CC)c1=O [Compound 6, N′-Dodecanoyl-1-ethyl-4-hydroxy-2-oxo-1,2-dihydroquinoline-3-carbohydrazide] | non-ATP-competitive inhibitor

These compounds were tested on GSK-3β (assay: Kinetic study varying GS-2 peptide substrate concentration (double-reciprocal plot)). Conditions: GS-2 15.5 to 100 μM, ATP 1 μM, inhibitor 5 to 10 μM.
Assay type: biochemical, human
Experimental: The GS-2 concentrations were varied from 15.5 to 100 µM, whereas the ATP concentration was kept constant at 1 µM. The concentrations of inhibitor (compound 6) used are shown in the plot.
On the other hand, we also studied the dependence of GSK-3β activity in the presence of these inhibitors as a function of the concentration of the substrate, the GS-2 peptide, used in the assays.

Structure (SMILES) | mode of inhibition versus substrate GS-2
CCCCCCCCCCCC(=O)NNC(=O)c1c(O)c2ccccc2n(CC)c1=O [Compound 6, N′-Dodecanoyl-1-ethyl-4-hydroxy-2-oxo-1,2-dihydroquinoline-3-carbohydrazide] | substrate-non-competitive inhibitor

The compounds below were run on GSK-3β (assay: Study of the inhibition of GSK-3β as a function of enzyme-inhibitor pre-incubation time). Conditions: different enzyme incubation times, two inhibitor concentrations.
Assay type: biochemical, human
Experimental: In order to determine the binding mode of these compounds, different kinetic studies were performed, varying the reaction times and the ATP concentration and the substrate concentration.

Structure (SMILES) | reversibility of enzyme inhibition
CCCCCCCCCCCC(=O)NNC(=O)c1c(O)c2ccccc2n(CC)c1=O [Compound 6, N′-Dodecanoyl-1-ethyl-4-hydroxy-2-oxo-1,2-dihydroquinoline-3-carbohydrazide] | reversible inhibitor
